Data on two compounds can be found in ChEMBL document CHEMBL3639005, “SGLT-2 inhibitors, methods of making them, and uses thereof” (2013).

Where only a bound is given, the exact number is not on record here.

Experiment [1] has as its target T1, Sodium/glucose cotransporter 1 (Homo sapiens, UniProt P13866).
T1 sequence (P13866 whole entry): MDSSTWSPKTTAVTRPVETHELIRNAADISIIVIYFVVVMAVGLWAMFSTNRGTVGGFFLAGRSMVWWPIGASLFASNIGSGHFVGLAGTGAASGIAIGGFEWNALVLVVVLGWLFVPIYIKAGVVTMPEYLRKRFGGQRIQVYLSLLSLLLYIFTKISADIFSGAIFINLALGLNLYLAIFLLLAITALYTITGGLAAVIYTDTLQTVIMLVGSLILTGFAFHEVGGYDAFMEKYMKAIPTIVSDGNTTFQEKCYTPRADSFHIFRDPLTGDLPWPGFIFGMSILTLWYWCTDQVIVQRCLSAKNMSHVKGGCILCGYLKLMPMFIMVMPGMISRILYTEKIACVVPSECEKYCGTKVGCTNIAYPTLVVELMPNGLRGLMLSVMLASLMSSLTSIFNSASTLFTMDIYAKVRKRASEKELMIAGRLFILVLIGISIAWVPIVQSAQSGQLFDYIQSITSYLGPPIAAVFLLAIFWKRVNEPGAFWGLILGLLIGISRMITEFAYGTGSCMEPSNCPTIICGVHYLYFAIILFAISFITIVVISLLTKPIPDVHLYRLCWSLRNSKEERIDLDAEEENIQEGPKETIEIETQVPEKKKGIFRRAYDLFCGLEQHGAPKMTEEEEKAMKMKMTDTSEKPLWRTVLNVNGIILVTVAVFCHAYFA
Nature of the experiment: (§1) In Vitro Assay: The inhibitory activity of the compounds of this invention against the SGLT-1 or SGLT-2 transporters.

For experiment [2], the target named is T2, Sodium/glucose cotransporter 2 (Homo sapiens, UniProt P31639).
T2 sequence (P31639 whole entry): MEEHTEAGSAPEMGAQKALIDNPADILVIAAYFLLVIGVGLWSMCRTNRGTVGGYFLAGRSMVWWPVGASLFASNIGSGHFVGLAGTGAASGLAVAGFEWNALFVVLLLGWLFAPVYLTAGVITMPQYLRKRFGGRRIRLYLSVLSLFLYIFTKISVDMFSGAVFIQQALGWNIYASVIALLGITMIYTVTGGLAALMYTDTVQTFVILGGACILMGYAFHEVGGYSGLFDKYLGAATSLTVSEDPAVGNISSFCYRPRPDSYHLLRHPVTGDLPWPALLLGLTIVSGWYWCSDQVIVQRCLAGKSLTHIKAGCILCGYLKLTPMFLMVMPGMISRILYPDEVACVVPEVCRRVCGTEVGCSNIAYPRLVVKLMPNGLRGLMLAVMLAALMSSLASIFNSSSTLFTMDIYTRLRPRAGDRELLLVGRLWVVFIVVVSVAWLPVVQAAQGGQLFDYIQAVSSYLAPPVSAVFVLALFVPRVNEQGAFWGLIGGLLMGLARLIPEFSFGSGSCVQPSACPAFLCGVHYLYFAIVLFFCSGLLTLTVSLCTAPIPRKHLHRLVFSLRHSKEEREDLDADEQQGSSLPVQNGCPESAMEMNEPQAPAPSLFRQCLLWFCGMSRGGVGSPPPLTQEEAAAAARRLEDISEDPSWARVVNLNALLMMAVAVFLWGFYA
The experiment is described as §1.

The term IC50 denotes the concentration that inhibits the measured activity by half. A low value points to greater potency in that assay. Consider `O=c1n(Cc2cc([C@@H]3O[C@H](CO)[C@@H](O)[C@H](O)[C@H]3O)ccc2Cl)nc2cc(Cl)ccn12`, for which the half-inhibitory concentration (IC50) in experiment [1] is over 90 µM; in experiment [2] it was 0.091 µM.

Turning to `N#CC1(c2ccc3nn(Cc4cc([C@@H]5O[C@H](CO)[C@@H](O)[C@H](O)[C@H]5O)ccc4Cl)c(=O)n3c2)CC1`, the IC50 was over 90 µM in experiment [1] and 0.223 µM in experiment [2].
